Where “and” joins values, the source holds several entries; their conditions need not be identical. Identical values can stand only once. Marks after values point to notes of the source that are not given here.
System: Male beagle dogs
Experiment: Serum total cholesterol in beagle dogs (serum lipid measurements)
Assay type: in vivo
Details: for TOTAL SERUM CHOLESTEROL / SERUM TOTAL CHOLESTEROL: n = 6; for decrease in serum total cholesterol concentration: compared to vehicle
Protocol: Male beagle dogs (9-10 kg) obtained from Marshall farms were fed a normal chow diet once a day for a two hour interval and given water ad libitum. Prior to initiating treatment, the dogs were weighed and blood samples were drawn from the cephalic vein of each dog following an overnight fast to evaluate pretreatment serum total cholesterol levels at the start of the study. […] All doses were administered in gelatin capsules per os to each dog between 9:00-9:30 a.m. prior to feeding. All animals were fed between 9:30-10:00 a.m. and were allowed two hours to eat, at which time any remaining food was removed. […] Animals were dosed daily for three weeks and blood samples were taken at the end of each week after an overnight fast for comparison with pretreatment serum total cholesterol levels. Three consecutive 24 hour fecal samples were collected for each group during the last 72 hours of each week and used to measure the concentration of fecal biles acids excreted during that time period.
Blood was collected from the cephalic vein of each dog into serum separator tubes. The blood was centrifuged at 900×g for 20 minutes at room temperature and the serum decanted. All analyses were performed on a Cobas Mira Clinical Analyzer System (Roche Diagnostic Systems, Branchburg, N.J.) using Roche Diagnostic reagents for enzymatic determinations of serum cholesterol. Commercial calibrator and quality control materials were analyzed with each run to verify assay accuracy and precision. A two-tailed, paired Students t-test was used to determine the statistical significance of changes in serum total cholesterol in treated dogs compared to pretreatment values. A one-way analysis of variance (“ANOVA”) was used to compare each pair of treatment groups to determine the statistical significance of changes in serum total cholesterol.
Beagle dogs also were administered pravastatin to evaluate the monotherapeutic effect of pravastatin on serum total cholesterol.
Male beagle dogs (9-10 kg) obtained from Marshall farms were fed once a day for two hours and given water ad libitum. Prior to initiating treatment, blood samples were drawn from the cephalic vein of each dog to evaluate pretreatment total serum cholesterol levels at the start of the study.
For the dose ranging study, the dogs were assigned to one of five groups based on mean body weights and serum total cholesterol levels. Each group received one of the following dosages: (1) vehicle (empty capsule, afternoon dosing), (2) 3.0 mg/kg/day pravastatin (afternoon dosing), (3) 10 mg/kg/day pravastatin (afternoon dosing), (4) 30 mg/kg/day pravastatin (afternoon dosing), and (5) 10 mg/kg/day pravastatin (morning dosing). One capsule containing pravastatin was administered per os to each dog between 9:00-9:30 a.m. prior to feeding for the 10 mg/kg/day morning dosing group and between 2:30-3:00 p.m. for the afternoon dosing groups. All animals were fed between 9:30-10:00 a.m. and were allowed two hours to eat, at which time any remaining food was removed. […] Animals were dosed daily for four weeks and blood samples were taken at the end of each week after an overnight fast for comparison with pretreatment serum total cholesterol levels.
Following this initial four week dose-ranging study, dogs from the two groups receiving 10 mg/kg/day pravastatin (a.m. and p.m. dosing groups) were randomized into two new treatment groups based on serum total cholesterol levels to initiate the combination treatment study. […] Dosing continued in this manner for an additional four weeks (Weeks 5-8) with blood and 48-hour fecal samples collected at the end of each week for serum lipid measurements and fecal bile acid determinations, respectively.

CC[C@H](C)C(=O)O[C@H]1C[C@H](O)C=C2C=C[C@H](C)[C@H](CC[C@@H](O)C[C@@H](O)CC(=O)O)[C@H]21 [pravastatin, Pravastatin]
TOTAL SERUM CHOLESTEROL (pravastatin 10.0 mg/kg/day pm dosing, Week 3, mean ± SEM): 128 ± 9^3 mg/dL
% change in serum total cholesterol compared to the pretreatment value of each group (pravastatin 10.0 mg/kg/day pm dosing, Week 4): (−21) %
TOTAL SERUM CHOLESTEROL (pravastatin 10.0 mg/kg/day pm dosing, Week 4, mean ± SEM): 126 ±8 mg/dL and 126 ± 8^3 mg/dL
% change in serum total cholesterol compared to the pretreatment value of each group (pravastatin 16.0 mg/kg/day, Week 1): (−8) %
SERUM TOTAL CHOLESTEROL (pravastatin 16.0 mg/kg/day, Week 1, mean ± SEM): 142 ± 8 mg/dL
% change in serum total cholesterol compared to the pretreatment value of each group (pravastatin 16.0 mg/kg/day, Week 2): (−12) %
SERUM TOTAL CHOLESTEROL (pravastatin 16.0 mg/kg/day, Week 2, mean ± SEM): 137 ± 12^2 mg/dL
% change in serum total cholesterol compared to the pretreatment value of each group (pravastatin 16.0 mg/kg/day, Week 3): (−14) %
decrease in serum total cholesterol concentration (pravastatin 16.0 mg/kg/day, one week of treatment): 8%
decrease in serum total cholesterol concentration (pravastatin 16.0 mg/kg/day, three weeks of treatment): 14%
% change in serum total cholesterol compared to the pretreatment value of each group (pravastatin 30.0 mg/kg/day pm dosing, Week 1): (+2) %
TOTAL SERUM CHOLESTEROL (pravastatin 30.0 mg/kg/day pm dosing, Week 1, mean ± SEM): 164 ± 10 mg/dL
% change in serum total cholesterol compared to the pretreatment value of each group (pravastatin 30.0 mg/kg/day pm dosing, Week 2): (−18) %
TOTAL SERUM CHOLESTEROL (pravastatin 30.0 mg/kg/day pm dosing, Week 2, mean ± SEM): 132 ± 8^3 mg/dL
% change in serum total cholesterol compared to the pretreatment value of each group (pravastatin 30.0 mg/kg/day pm dosing, Week 3): (−18) %
TOTAL SERUM CHOLESTEROL (pravastatin 30.0 mg/kg/day pm dosing, Week 3, mean ± SEM): 132 ± 11^3 mg/dL
% change in serum total cholesterol compared to the pretreatment value of each group (pravastatin 30.0 mg/kg/day pm dosing, Week 4): (−20) %
TOTAL SERUM CHOLESTEROL (pravastatin 30.0 mg/kg/day pm dosing, Week 4, mean ± SEM): 128 ± 7^3 mg/dL
lowering of serum total cholesterol (pravastatin 30 mg/kg/day, four week dose ranging study): 20%
total decrease in serum total cholesterol compared to the pretreatment value (pravastatin monotherapy 10 mg/kg/day, Week 8): 30%
% change from Week 0 in total serum cholesterol (pravastatin monotherapy 10 mg/kg/day, dosed Weeks 1-11, Week 1): (−2) %
TOTAL SERUM CHOLESTEROL (pravastatin monotherapy 10 mg/kg/day, dosed Weeks 1-11, Week 1, mean ± SEM): 157 ± 10 mg/dL
% change from Week 0 in total serum cholesterol (pravastatin monotherapy 10 mg/kg/day, dosed Weeks 1-11, Week 2): (−16) %
TOTAL SERUM CHOLESTEROL (pravastatin monotherapy 10 mg/kg/day, dosed Weeks 1-11, Week 2, mean ± SEM): 135 ± 17 mg/dL
% change from Week 0 in total serum cholesterol (pravastatin monotherapy 10 mg/kg/day, dosed Weeks 1-11, Week 3): (−18) %
TOTAL SERUM CHOLESTEROL (pravastatin monotherapy 10 mg/kg/day, dosed Weeks 1-11, Week 3, mean ± SEM): 132 ± 13 mg/dL
% change from Week 0 in total serum cholesterol (pravastatin monotherapy 10 mg/kg/day, dosed Weeks 1-11, Week 4): (−19) %
TOTAL SERUM CHOLESTEROL (pravastatin monotherapy 10 mg/kg/day, dosed Weeks 1-11, Week 4, mean ± SEM): 130 ± 9 [a] mg/dL
% change from Week 0 in total serum cholesterol (pravastatin monotherapy 10 mg/kg/day, dosed Weeks 1-11, Week 5): (−21) %
TOTAL SERUM CHOLESTEROL (pravastatin monotherapy 10 mg/kg/day, dosed Weeks 1-11, Week 5, mean ± SEM): 127 ± 9 [a] mg/dL
% change from Week 0 in total serum cholesterol (pravastatin monotherapy 10 mg/kg/day, dosed Weeks 1-11, Week 6): (−27) %
TOTAL SERUM CHOLESTEROL (pravastatin monotherapy 10 mg/kg/day, dosed Weeks 1-11, Week 6, mean ± SEM): 117 ± 10 [a] mg/dL
% change from Week 0 in total serum cholesterol (pravastatin monotherapy 10 mg/kg/day, dosed Weeks 1-11, Week 7): (−25) %
TOTAL SERUM CHOLESTEROL (pravastatin monotherapy 10 mg/kg/day, dosed Weeks 1-11, Week 7, mean ± SEM): 121 ± 7 [a] mg/dL
% change from Week 0 in total serum cholesterol (pravastatin monotherapy 10 mg/kg/day, dosed Weeks 1-11, Week 8): (−30) %
TOTAL SERUM CHOLESTEROL (pravastatin monotherapy 10 mg/kg/day, dosed Weeks 1-11, Week 8, mean ± SEM): 113 ±9 mg/dL and 113 ± 9 [a] mg/dL
% change from Week 0 in total serum cholesterol (pravastatin monotherapy 10 mg/kg/day, dosed Weeks 1-11, Week 9): (−26) %
TOTAL SERUM CHOLESTEROL (pravastatin monotherapy 10 mg/kg/day, dosed Weeks 1-11, Week 9, mean ± SEM): 119 ± 8 [a] mg/dL
% change from Week 0 in total serum cholesterol (pravastatin monotherapy 10 mg/kg/day, dosed Weeks 1-11, Week 10): (−27) %
TOTAL SERUM CHOLESTEROL (pravastatin monotherapy 10 mg/kg/day, dosed Weeks 1-11, Week 10, mean ± SEM): 118 ± 9 [a] mg/dL
% change from Week 0 in total serum cholesterol (pravastatin monotherapy 10 mg/kg/day, dosed Weeks 1-11, Week 11): (−27) %
TOTAL SERUM CHOLESTEROL (pravastatin monotherapy 10 mg/kg/day, dosed Weeks 1-11, Week 11, mean ± SEM): 118 ± 8 [a] mg/dL
% change from Week 0 in total serum cholesterol (pravastatin monotherapy group, dosing terminated after Week 11, Week 12): (−19) %
TOTAL SERUM CHOLESTEROL (pravastatin monotherapy group, dosing terminated after Week 11, Week 12, mean ± SEM): 131 ± 9 [a] mg/dL
% change from Week 0 in total serum cholesterol (pravastatin monotherapy group, dosing terminated after Week 11, Week 13): (−9) %
TOTAL SERUM CHOLESTEROL (pravastatin monotherapy group, dosing terminated after Week 11, Week 13, mean ± SEM): 147 ± 9 mg/dL
% change from Week 0 in total serum cholesterol (pravastatin monotherapy group, dosing terminated after Week 11, Week 14): (−11) %
TOTAL SERUM CHOLESTEROL (pravastatin monotherapy group, dosing terminated after Week 11, Week 14, mean ± SEM): 144 ± 12 mg/dL
